Values joined by “and” are separate entries in the source; they are usually repeats but may differ in a detail not shown here. Equal values may be shown once.
Columns and labels:
[1] = ASTM B-117 static salt fog test of PVB wash primers, rated by ASTM D-1654; conditions: PVB wash primer; for B-117 Proc. A: ASTM D-1654 rating Procedure A; for B-117 Proc. B: ASTM D-1654 rating Procedure B
Procedure: (§1) The corrosion inhibiting performance of MnIII and MnIV pigments was evaluated by incorporating them into primer paint formulations. […] The wash primer is composed of a resin, an acid, a corrosion inhibiting pigment, powdered talc, and carbon lampblack. The acid content of this wash primer provides a rigorous initial test of the stability and performance of the pigments. Other, more benign, polymer-based binder and resin systems might not separate the compounds based on their performance as effectively or as rapidly. […] PVB was used exclusively throughout testing to avoid preparation and compositional complications during analysis of pigment performance. However, the invention is not limited to the use of PVB. […] A small amount (0.2 g) of powdered talc (magnesium silicate) “filler” was added. Lampblack was not added to these samples. These components were mixed thoroughly by hand and 3.8 g of phosphoric acid diluent added with further mixing. This rough processing allowed direct comparisons of pigment performance to be made without complications due to powder treatments, modifications, and additives. […] This is not the conventional paint application procedure for aluminum alloys. Under normal service conditions, aluminum alloys are first subjected to a hexavalent chromium-containing conversion coating prior to primer application. However, the conversion coating was omitted so that the performance of the pigment alone could be evaluated and not the synergistic effects of hexavalent chromium (in the conversion coating) or even of barrier films (in the phosphate or anodized coatings). […] This accelerated corrosion test exposes samples to a constant salt-water fog and is a de facto test of solubility for corrosion inhibitors. […] This accelerated corrosion test exposes samples to a cycle of fog of dilute salt and ammonium sulfate at room temperature followed by forced-air drying at an elevated temperature. This is a more realistic test of the ability of a compound to inhibit corrosion. […] After the paint dried for 24 hours, each plate was scribed with an X and the plate edges were sealed with PVC tape to eliminate corrosion edge effects. Two visual observations are associated with this rating test. Procedure A involves a rating of the failure at the scribe-the representative […] of corrosion away from the scribe. […] In this way, not only the bulk corrosion-inhibiting action of a pigment through the binder can be rated, but also its “throwing power”.

[2] = ASTM G-85.5 cyclic Prohesion test of PVB wash primers, rated by ASTM D-1654; conditions: PVB wash primer; for G-85 Proc. A: ASTM D-1654 rating Procedure A; for G-85 Proc. B: ASTM D-1654 rating Procedure B
Procedure: as §1

[3] = cited from earlier work
[4] = 7.44 × 10^−4 M (10% of Cr), 139 hours, 2024-T3 (alloy taken from column order of Table 7)
[5] = 7.44 × 10^−4 M (10% of Cr), 139 hours, 7075-T6 (alloy taken from column order of Table 7)
[6] = 7.44 × 10^−4 M (10% of Cr), 117 hours, 2024-T3 (alloy taken from column order of Table 7)
[7] = 7.44 × 10^−4 M (10% of Cr), 117 hours, 7075-T6 (alloy taken from column order of Table 7)
[8] = 1.49 × 10^−3 M (20% of Cr), 144 hours, 2024-T3 (alloy taken from column order of Table 7)
[9] = 1.49 × 10^−3 M (20% of Cr), 144 hours, 7075-T6 (alloy taken from column order of Table 7)

| Compound | B-117 Proc. A [1, 4] | B-117 Proc. A [1, 5] | B-117 Proc. B [1, 4] | B-117 Proc. B [1, 5] | G-85 Proc. A [2, 4] | G-85 Proc. A [2, 5] | G-85 Proc. B [2, 4] | G-85 Proc. B [2, 5] | B-117 Proc. A [1, 6] | B-117 Proc. A [1, 7] | G-85 Proc. A [2, 6] | G-85 Proc. A [2, 7] | G-85 Proc. B [2, 6] | G-85 Proc. B [2, 7] | also measured |
| --- | --- | --- | --- | --- | --- | --- | --- | --- | --- | --- | --- | --- | --- | --- | --- |
| strontium 13-vanadatomanganate | 7 | 7 | 6 | 6 | 6 | 6 | 5 and 6 | 5 and 6 | – | – | – | – | – | – | – |
| barium 13-vanadatomanganate | 7 | 7 | 8 and 7 | 6 | 6 and 7 | 6 | 6 | 5 | – | – | – | – | – | – | – |
| calcium 13-vanadatomanganate | 8 | 7 | 7 | 6 | 7 | 7 | 6 | 6 | – | – | – | – | – | – | – |
| barium 9-molybdomanganate | – | – | – | – | – | – | – | – | 4 | 3 | 7 | 8 and 7 | 6 | 7 and 6 | – |
| [O]1[Pb][O][Pb]12[O][Pb][O]2 [red lead] | – | – | – | – | – | – | – | – | – | – | – | – | – | – | PbVI solubility ([3]; Glasstone, J. Chem. Soc. 121: 1456-69, 1922): 10^−17 moles/liter Pb^+4 |
| zinc 9-molybdomanganate | – | – | – | – | – | – | – | – | 5 | 5 | 7 | 7 and 8 | 7 and 6 | 7 | B-117 Proc. B [1, 6]: 3; B-117 Proc. B [1, 7]: 4 and 3 |
| calcium 9-molybdomanganate | – | – | – | – | – | – | – | – | 6 | 5 | 6 | 7 | 5 | 6 | B-117 Proc. B [1, 6]: 3; B-117 Proc. B [1, 7]: 4 |
| barium hexaiodatomanganate | – | – | – | – | – | – | – | – | – | – | – | – | – | – | B-117 Proc. A [1, 8]: 5; B-117 Proc. A [1, 9]: 5; B-117 Proc. B [1, 8]: 3; B-117 Proc. B [1, 9]: 3; G-85 Proc. A [2, 8]: 7 and 8; G-85 Proc. A [2, 9]: 8 and 7; G-85 Proc. B [2, 8]: 7 and 8; G-85 Proc. B [2, 9]: 8 and 7 |
| zinc 13-vanadatomanganate | 8 | 7 | 9 | 8 | 7 | 7 and 6 | 6 and 5 | 6 and 5 | – | – | – | – | – | – | – |
| strontium 9-molybdomanganate | – | – | – | – | – | – | – | – | 5 | 4 and 5 | 6 | 6 | 5 | 5 | – |
| [O]=[Cr](=[O])([O-])[O-].[O]=[Pb].[Pb+2] [basic lead chromate] | – | – | – | – | – | – | – | – | – | – | – | – | – | – | solubility in water relative to lead chromate [3]: slightly lower solubility in water |
| magnesium 13-vanadatomanganate | 9 | 7 | 7 | 8 | 7 | 6 and 7 | 6 | 5 and 6 | – | – | – | – | – | – | – |

From patent publication US7789958B2, “Non-toxic corrosion-protection pigments based on manganese” (University of Dayton, priority 2003, dated 2010)
